Results as given in patent US10954269B2, “Anti-inflammatory tripeptides” (Dr. August Wolff Gmbh & Co. KG Arzneimittel, priority 2013, dated 2021).
[ ]: non-standard residue; d: D form. Aib = CC(C)(N)C(=O)O

Key:
[1] = test system: human keratinocytes (HaCaT); assay: Gene expression of pro-inflammatory cytokines (RT-qPCR) in human keratinocytes (HaCaT); format: cell-based; settings: HaCaT keratinocytes; RT-qPCR
Excerpt: (§1) Cells were activated with PMA/Ionomycin and treated with PBS, α-MSH, K(D)PT and Examples 3, 8 and 9, respectively, at a concentration of 10^−9 M. Values are normalized to β-actin and are shown relative to the gene expression in PBS-stimulated cells.
(§2) Primary T-cells were isolated from peripheral blood from healthy volunteers and from secondary lymphatic organs from naïve C57BL/6 mice, respectively. The cells were stimulated with phorbol-12-myristate-13-acetate (PMA)/Ionomycin and interferon-gamma (IFN-γ), respectively, for 48 h to activate the cells. The activated cells release pro-inflammatory cytokines. In parallel a human (HaCaT) keratinocyte cell line was activated with PMA/Ionomycin and IFN-γ, respectively, too. […] At the same time release of anti-inflammatory IL-10 was inhibited. Two days after addition of PMA/Ionomycin and IFN-γ, respectively, the induction of IL-1 secretion was determined in the supernatant for proving that the cells are activated. […] The anti-inflammatory properties of the tripeptides were determined 48 h and 72 h following stimulation. A 13-plex-system based FACS analysis was used for showing the reduced secretion of pro-inflammatory cytokines in the supernatant. Data for IL-1, IL-2, IL-6, IL-12p70 IL-17, IFN-γ and TNF-α are considered to be most relevant. Thus, analysis of the anti-inflammatory properties of the tripeptides is preferably based on the results obtained for these analytes. […] Using this method the gene expression of pro-inflammatory markers like IL-6, IL-17, IFN-γ and TNF-α was determined.
(§3) In a third experiment murine and human T cells and HaCaT cells were stimulated with PMA/Ionomycin and treated with Examples 14, 15, 16 and 17 at 10^−7 M, 10^−9 M and 10^−11 M. Cytokine concentrations (IFN-γ, IL-17 and IL-10 for T cells and IFN-γ for HaCat) were assessed in the supernatants using the Luminex technology. Expression of genes coding for Il-1β, IL-6 and TNF-α was determined. […] Moreover, concentrations of pro-inflammatory cytokines IFN-γ and IL-17 was reduced in the supernatants whereas the concentration of anti-inflammatory cytokine IL-10 was increased.

primary human T cells = assay: Gene expression of pro-inflammatory cytokines (RT-qPCR) in primary human T cells; format: cell-based; settings: RT-qPCR
Excerpt: as §1, §2, §3

Balb/c mice = assay: Imiquimod-induced psoriasis in mice; format: in vivo; settings: i.v.
Description: Psoriasis in Balb/c mice is induced by daily application of topical Imiquimod for 8 days. Animal are treated with the test items (topical or systemically). On day 9 the skin phenotype is characterized using a clinical score system (0=normal mouse skin; 1=mild reddening; 2=erythema; 3=erythema, swelling; 4=erythema, swelling, scaling; 5=erythema, swelling, scaling, (bloody) lesions). Skin is analyzed histologically. Lymph nodes are analyzed by flow cytometry and RT-qPCR. mRNA expression in lesional skin is analyzed by RT-qPCR. Cytokine concentrations in the serum are assessed using the Luminex technology.

[2] = test system: human keratinocyte cell line (HaCaT); assay: Cytokine secretion on protein level in activated human keratinocyte cell line HaCaT (13-plex FACS / Luminex, supernatant); format: cell-based; settings: for IL-1 cytokine concentration / IL-2 cytokine concentration / IL-4 cytokine concentration / IL-5 cytokine concentration / IL-6 cytokine concentration / IL-9 cytokine concentration / IL-10 cytokine concentration / IL-12p70 cytokine concentration / IL-13 cytokine concentration / IL-17 cytokine concentration / IL-22 cytokine concentration / TNF-α cytokine concentration / IFN-γ cytokine concentration: substance 10^−9M
How it was run: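 Cytokine protein in supernatant is read by multiplex FACS or Luminex. Tripeptide-treated HaCaT cells or blood-derived human T-cells are stimulated beforehand with PMA/Ionomycin or IFN-γ. The most relevant analytes are IL-1, IL-2, IL-6, IL-12p70, IL-17, IFN-γ and TNF-α, sampled 48 h and 72 h after stimulation.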

primary murine T cells = assay: Gene expression of pro-inflammatory cytokines (RT-qPCR) in primary murine T cells; format: cell-based, C57BL/6 mice; settings: RT-qPCR
Excerpt: as §1, §2, §3

[3] = HaCaT stimulated with PMA/Ionomycin

In the case of H-Phe-Pro-[Aib]-OH [Example 13], the “gene expression of pro-inflammatory cytokines” value [1] is reported as “reduced expression”, the “mRNA expression of IL-6, IL-17, IFN-γ and TNF-α” value (primary human T cells) is reported as “reduced expression” and the “concentrations of TNF-α and IL-17 in the serum” value (Balb/c mice) is reported as “reduced”. The “mRNA expression of IL-17, IFN-γ, IL-23, IL-36 and IL-22 in lesional skin” value (Balb/c mice) was “reduced”, the “size of the rete ridges” value (Balb/c mice; compared to vehicle control) was “decreased” and the clinical score (Balb/c mice; day 9) was “reduced”. The IL-1 cytokine concentration ([2]; HaCaT stimulated with IFN-γ) was 0 pg/mL, the IL-2 cytokine concentration ([2]; HaCaT stimulated with IFN-γ) was 0 pg/mL and the IL-4 cytokine concentration ([2]; HaCaT stimulated with IFN-γ) was 76.13 pg/mL. For the same substance, the IL-5 cytokine concentration ([2]; HaCaT stimulated with IFN-γ) was 0 pg/mL, the IL-6 cytokine concentration ([2]; HaCaT stimulated with IFN-γ) was 255.5 pg/mL and the IL-9 cytokine concentration ([2]; HaCaT stimulated with IFN-γ) was 0 pg/mL. The IL-10 cytokine concentration ([2]; HaCaT stimulated with IFN-γ) was 7.59 pg/mL, the IL-12p70 cytokine concentration ([2]; HaCaT stimulated with IFN-γ) was 0 pg/mL and the IL-13 cytokine concentration ([2]; HaCaT stimulated with IFN-γ) was 0 pg/mL. It also gave an IL-17 cytokine concentration ([2]; HaCaT stimulated with IFN-γ) of 34.2 pg/mL, an IL-22 cytokine concentration ([2]; HaCaT stimulated with IFN-γ) of 0 pg/mL and a TNF-α cytokine concentration ([2]; HaCaT stimulated with IFN-γ) of 0 pg/mL. The IFN-γ cytokine concentration ([2]; HaCaT stimulated with PBS) was 0 pg/mL, the IL-1 cytokine concentration ([2]; HaCaT stimulated with PBS) was 17.16 pg/mL and the IL-2 cytokine concentration ([2]; HaCaT stimulated with PBS) was 14.24 pg/mL. It also gave an IL-4 cytokine concentration ([2]; HaCaT stimulated with PBS) of 132.37 pg/mL, an IL-5 cytokine concentration ([2]; HaCaT stimulated with PBS) of 0 pg/mL and an IL-6 cytokine concentration ([2]; HaCaT stimulated with PBS) of 74.11 pg/mL. For the same substance, the IL-9 cytokine concentration ([2]; HaCaT stimulated with PBS) was 0 pg/mL, the IL-10 cytokine concentration ([2]; HaCaT stimulated with PBS) was 74.67 pg/mL and the IL-12p70 cytokine concentration ([2]; HaCaT stimulated with PBS) was 0 pg/mL. The IL-13 cytokine concentration ([2]; HaCaT stimulated with PBS) was 1948.04 pg/mL, the IL-17 cytokine concentration ([2]; HaCaT stimulated with PBS) was 0 pg/mL and the IL-22 cytokine concentration ([2]; HaCaT stimulated with PBS) was 0 pg/mL. For the same substance, the TNF-α cytokine concentration ([2]; HaCaT stimulated with PBS) was 6.94 pg/mL, the IFN-γ cytokine concentration [2, 3] was 0 pg/mL and the IL-1 cytokine concentration [2, 3] was 0 pg/mL. The IL-2 cytokine concentration [2, 3] was 0 pg/mL, the IL-4 cytokine concentration [2, 3] was 91.99 pg/mL and the IL-5 cytokine concentration [2, 3] was 0 pg/mL. The IL-6 cytokine concentration [2, 3] was 216.69 pg/mL, the IL-9 cytokine concentration [2, 3] was 0 pg/mL and the IL-10 cytokine concentration [2, 3] was 41.86 pg/mL. The IL-12p70 cytokine concentration [2, 3] was 0 pg/mL, the IL-13 cytokine concentration [2, 3] was 0 pg/mL and the IL-17 cytokine concentration [2, 3] was 21.33 pg/mL. For the same substance, the IL-22 cytokine concentration [2, 3] was 0 pg/mL, the TNF-α cytokine concentration [2, 3] was 0 pg/mL and the “secretion / expression of pro-inflammatory cytokines (supernatant)” value ([2]; activated human keratinocytes) was “decreased expression”. The “mRNA expression of IL-6, IL-17, IFN-γ and TNF-α” value (primary murine T cells) was “reduced expression”.
